Test results published in ChEMBL document CHEMBL3120061, “Novel spiroketal pyrrolidine GSK2336805 potently inhibits key hepatitis C virus genotype 1b mutants: from lead to clinical compound” (J Med Chem, 2014).

Key:
Hepatitis C virus [1] = experiment: Antiviral activity against Hepatitis C virus genotype 1b in Huh-luc/neo-ET replicon cells after 48 hrs by replicon-based luciferase assay; type: functional, organism-based, Hepacivirus hominis
Hepatitis C virus [2] = experiment: Antiviral activity against Hepatitis C virus genotype 1a in Huh-luc/neo-ET replicon cells after 48 hrs by replicon-based luciferase assay; type: functional, organism-based, Hepacivirus hominis; settings: subtype 1a
Hepatitis C virus [3] = experiment: Ratio of EC50 for Hepatitis C virus genotype 1b harboring NS5A Y93H mutant gene to EC50 for Hepatitis C virus genotype 1b harboring wild type NS5A in Huh-luc/neo-ET replicon cells by replicon-based luciferase assay; type: functional, Hepacivirus hominis
Hepatitis C virus [4] = experiment: Antiviral activity against Hepatitis C virus genotype 1b harboring NS5A L28V mutant gene in Huh-luc/neo-ET replicon cells after 48 hrs by transient replicon mutant-based luciferase assay; type: functional, organism-based, Hepacivirus hominis
Hepatitis C virus [5] = experiment: Ratio of EC50 for Hepatitis C virus genotype 1b harboring NS5A L31V mutant gene to EC50 for Hepatitis C virus genotype 1b harboring wild type NS5A in Huh-luc/neo-ET replicon cells by replicon-based luciferase assay; type: functional, Hepacivirus hominis
Hepatitis C virus [6] = experiment: Antiviral activity against Hepatitis C virus genotype 1b harboring NS5A L31V mutant gene in Huh-luc/neo-ET replicon cells after 48 hrs by transient replicon mutant-based luciferase assay; type: functional, organism-based, Hepacivirus hominis
Hepatitis C virus [7] = experiment: Antiviral activity against Hepatitis C virus genotype 1b harboring NS5A Y93H mutant gene in Huh-luc/neo-ET replicon cells after 48 hrs by transient replicon mutant-based luciferase assay; type: functional, organism-based, Hepacivirus hominis

Compound | EC50 (Hepatitis C virus [1]) [nM] | EC50 (Hepatitis C virus [2]) [nM] | also measured
COC(=O)N[C@H](C(=O)N1CC2(CC1c1ncc(-c3ccc(-c4ccc(-c5cnc([C@@H]6CCCN6C(=O)[C@@H](NC(=O)OC)C(C)C)[nH]5)cc4)cc3)[nH]1)CN(C(=O)OC(C)(C)C)C2)C(C)C (mixture of isomers) | 0.01 | 1 | –
CC[C@H](NC(=O)OC)C(=O)N1C(c2ncc(-c3ccc(-c4ccc(-c5cnc([C@@H]6CCCN6C(=O)[C@@H](NC(=O)OC)C(C)C)[nH]5)cc4)cc3)[nH]2)CCC12CCC(F)(F)CC2 (stereo partly specified) | 0.0158 | 1 | –
COC(=O)N[C@H](C(=O)N1CCC[C@H]1c1ncc(-c2ccc(-c3ccc(-c4cnc(C5CCC6(CCOCC6)N5C(=O)[C@@H](NC(=O)OC)C(C)C)[nH]4)cc3)cc2)[nH]1)C(C)C (stereo partly specified) | 0.0631 | 1.58 | –
COC(=O)N[C@H](C(=O)N1CCC[C@H]1c1ncc(-c2ccccc2)[nH]1)C(C)C | 200 | 501 | –
COC(=O)N[C@H](C(=O)N1CC2(CC1c1ncc(-c3ccc(-c4ccc(-c5cnc([C@@H]6CCCN6C(=O)[C@@H](NC(=O)OC)C(C)C)[nH]5)cc4)cc3)[nH]1)CC(F)(F)C2)C(C)C (mixture of isomers) | 0.00398 | 0.1 | –
COC(=O)N[C@H](C(=O)N1CCC[C@H]1c1ncc(-c2ccc(-c3ccc(-c4cnc(C5CCC6(CCOCC6)N5C(=O)OCc5ccccc5)[nH]4)cc3)cc2)[nH]1)C(C)C (stereo partly specified) | 0.00631 | 6.31 | –
O=C(NC1CC1)c1ccc(-c2csc(NC(=O)[C@@H]3CCCN3C(=O)OCc3ccccc3)n2)cc1 | 126 | > 20000 | –
COC(=O)N[C@H](C(=O)N1CCC[C@H]1c1ncc(-c2ccc(-c3ccc(-c4cnc([C@@H]5CC6(CCC(F)(F)CC6)CN5C(=O)[C@@H](NC(=O)OC)C(C)C)[nH]4)cc3)cc2)[nH]1)C(C)C | 0.00251 | 0.0398 | Ratio EC50 (Hepatitis C virus [3]): >=30; EC50 (Hepatitis C virus [4]): 0.00158 nM; Ratio EC50 (Hepatitis C virus [5]): >=25; EC50 (Hepatitis C virus [6]): 0.2 nM; EC50 (Hepatitis C virus [7]): 1 nM
COC(=O)N[C@H](C(=O)N1CC2(CC1c1ncc(-c3ccc(-c4ccc(-c5cnc([C@@H]6CCCN6C(=O)[C@@H](NC(=O)OC)C(C)C)[nH]5)cc4)cc3)[nH]1)CN(S(C)(=O)=O)C2)C(C)C (mixture of isomers) | 0.0501 | 1.26 | –
COC(=O)N[C@H](C(=O)N1CCC[C@H]1c1ncc(-c2ccc(-c3ccc(-c4cnc(C5CCC6(CCC(F)(F)CC6)N5C(C)=O)[nH]4)cc3)cc2)[nH]1)C(C)C (stereo partly specified) | 0.1 | 25.1 | –
COC(=O)N[C@@H](CC(C)C)C(=O)N1C(c2ncc(-c3ccc(-c4ccc(-c5cnc([C@@H]6CCCN6C(=O)[C@@H](NC(=O)OC)C(C)C)[nH]5)cc4)cc3)[nH]2)CCC12CCC(F)(F)CC2 (stereo partly specified) | 0.0126 | 2 | –
COC(=O)N[C@H](C(=O)N1CCC[C@H]1c1ncc(-c2ccc(-c3ccc(-c4cnc(C5CCC6(CCS(=O)(=O)CC6)N5C(=O)[C@@H](NC(=O)OC)C(C)C)[nH]4)cc3)cc2)[nH]1)C(C)C (stereo partly specified) | 0.316 | 12.6 | –
COC(=O)N[C@H](C(=O)N1CCC[C@H]1c1ncc(-c2ccc(-c3ccc(-c4cnc(C5CCC6(CCC(F)(F)CC6)N5C(=O)[C@@H](NC(=O)OC)C(C)C)[nH]4)cc3)cc2)[nH]1)C(C)C (stereo partly specified) | 0.0158 | 1.58 | –
COC(=O)N[C@H](C(=O)N1CC2(CNC2)CC1c1ncc(-c2ccc(-c3ccc(-c4cnc([C@@H]5CCCN5C(=O)[C@@H](NC(=O)OC)C(C)C)[nH]4)cc3)cc2)[nH]1)C(C)C (mixture of isomers) | 0.126 | 3.16 | –
COC(=O)N[C@H](C(=O)N1CC2(CCOCC2)C[C@H]1c1ncc(-c2ccc(-c3ccc(-c4cnc([C@@H]5CC6(CCOCC6)CN5C(=O)[C@@H](NC(=O)OC)C(C)C)[nH]4)cc3)cc2)[nH]1)C(C)C | 0.0126 | 0.02 | Ratio EC50 (Hepatitis C virus [3]): >=30; EC50 (Hepatitis C virus [4]): 0.00631 nM; Ratio EC50 (Hepatitis C virus [5]): <=5; EC50 (Hepatitis C virus [6]): 0.02 nM; EC50 (Hepatitis C virus [7]): 0.126 nM
COC(=O)N[C@H](C(=O)N1CCC[C@H]1c1ncc(-c2ccc(-c3ccc(-c4cnc([C@@H]5CC6(CN5C(=O)[C@@H](NC(=O)OC)C(C)C)OCC(C)(C)CO6)[nH]4)cc3)cc2)[nH]1)C(C)C | 0.00251 | 0.794 | –
COC(=O)N[C@H](C(=O)N1CC2(CC1c1ncc(-c3ccc(-c4ccc(-c5cnc([C@@H]6CCCN6C(=O)[C@@H](NC(=O)OC)C(C)C)[nH]5)cc4)cc3)[nH]1)CN(C(=O)OC)C2)C(C)C (mixture of isomers) | 0.0501 | 2 | –
COC(=O)N[C@@H](C)C(=O)N1CC2(C[C@H]1c1ncc(-c3ccc(-c4ccc(-c5cnc([C@@H]6CCCN6C(=O)[C@@H](NC(=O)OC)C(C)C)[nH]5)cc4)cc3)[nH]1)OCCCO2 | 0.02 | 0.0794 | –
COC(=O)NCC(=O)N1CC2(C[C@H]1c1ncc(-c3ccc(-c4ccc(-c5cnc([C@@H]6CCCN6C(=O)[C@@H](NC(=O)OC)C(C)C)[nH]5)cc4)cc3)[nH]1)SCCS2 | 0.00501 | 0.631 | –

Compound | EC50 (Hepatitis C virus [1]) [nM] | EC50 (Hepatitis C virus [2]) [nM] | also measured
O=C(Nc1nc(-c2ccccc2)cs1)[C@@H]1CCCN1C(=O)OCc1ccccc1 | 2510 | > 20000 | –
COC(=O)N[C@H](C(=O)N1CCC[C@H]1c1ncc(-c2ccc(-c3ccc(-c4cnc([C@@H]5CC6(CN5C(=O)[C@@H](NC(=O)OC)C(C)C)SCCS6)[nH]4)cc3)cc2)[nH]1)C(C)C | 0.00398 | 0.0794 | –
COC(=O)N[C@H](C(=O)N1CCC[C@H]1c1ncc(-c2ccc(-c3ccc(-c4cnc([C@@H]5CC6(CN5C(=O)[C@@H](NC(=O)OC)C(C)C)OCCCO6)[nH]4)cc3)cc2)[nH]1)C(C)C | 0.00794 | 0.0251 | –
CC[C@H](NC(=O)OC)C(=O)N1CC2(C[C@H]1c1ncc(-c3ccc(-c4ccc(-c5cnc([C@@H]6CCCN6C(=O)[C@@H](NC(=O)OC)C(C)C)[nH]5)cc4)cc3)[nH]1)SCCS2 | 0.00398 | 0.0631 | –
COC(=O)N[C@H](C(=O)N1CCC[C@H]1c1ncc(-c2ccc(-c3ccc(-c4cnc([C@@H]5COC6(CCOCC6)N5C(=O)OCc5ccccc5)[nH]4)cc3)cc2)[nH]1)C(C)C | 0.002 | 1.58 | –
COC(=O)N[C@H](C(=O)N1CC2(CCS(=O)(=O)CC2)CC1c1ncc(-c2ccc(-c3ccc(-c4cnc([C@@H]5CCCN5C(=O)[C@@H](NC(=O)OC)C(C)C)[nH]4)cc3)cc2)[nH]1)C(C)C (mixture of isomers) | 0.0398 | 0.398 | –
COC(=O)N[C@H](C(=O)N1CC2(CCNCC2)CC1c1ncc(-c2ccc(-c3ccc(-c4cnc([C@@H]5CCCN5C(=O)[C@@H](NC(=O)OC)C(C)C)[nH]4)cc3)cc2)[nH]1)C(C)C (mixture of isomers) | 1.58 | > 31.6 | –
COC(=O)N[C@H](C(=O)N1CC2(CCN(C(=O)OC(C)(C)C)CC2)CC1c1ncc(-c2ccc(-c3ccc(-c4cnc([C@@H]5CCCN5C(=O)[C@@H](NC(=O)OC)C(C)C)[nH]4)cc3)cc2)[nH]1)C(C)C (mixture of isomers) | 0.0398 | 10 | –
O=C(Nc1cccnc1)c1ccc(-c2csc(NC(=O)[C@@H]3COC4(CCOCC4)N3C(=O)OCc3ccccc3)n2)cc1 | 0.251 | > 20000 | –
COC(=O)N[C@H](C(=O)N1CC2(CCN(C(=O)OC)CC2)CC1c1ncc(-c2ccc(-c3ccc(-c4cnc([C@@H]5CCCN5C(=O)[C@@H](NC(=O)OC)C(C)C)[nH]4)cc3)cc2)[nH]1)C(C)C (mixture of isomers) | 0.0158 | 0.794 | –
COC(=O)N[C@H](C(=O)N1CCC[C@H]1c1ncc(-c2ccc(-c3ccc(-c4cnc([C@@H]5CC6(CN5C(=O)[C@@H](NC(=O)OC)C(C)C)O[C@@H](C)C[C@H](C)O6)[nH]4)cc3)cc2)[nH]1)C(C)C (stereo partly specified) | 0.0126 | 2 | –
CN(C)[C@@H](C(=O)N1CCC[C@H]1c1ncc(-c2ccc(-c3ccc(-c4cnc([C@@H]5COC6(CCOCC6)N5C(=O)OCc5ccccc5)[nH]4)cc3)cc2)[nH]1)c1ccccc1 | 0.00631 | 1.58 | –
COC(=O)N[C@H](C(=O)N1CC2(CCOCC2)CC1c1ncc(-c2ccc(-c3ccc(-c4cnc([C@@H]5CCCN5C(=O)[C@@H](NC(=O)OC)C(C)C)[nH]4)cc3)cc2)[nH]1)C(C)C (mixture of isomers) | 0.0158 | 0.0631 | –
COC(=O)N[C@H](C(=O)N1CCC[C@H]1c1ncc(-c2ccc(-c3ccc(-c4cnc(C5CCC6(CCOCC6)N5C(C)=O)[nH]4)cc3)cc2)[nH]1)C(C)C (stereo partly specified) | 0.0126 | 0.316 | –
COC(=O)N[C@H](C(=O)N1CC2(CCN(C(C)=O)CC2)CC1c1ncc(-c2ccc(-c3ccc(-c4cnc([C@@H]5CCCN5C(=O)[C@@H](NC(=O)OC)C(C)C)[nH]4)cc3)cc2)[nH]1)C(C)C (mixture of isomers) | 0.2 | 10 | –
CNC(=O)N1CC2(CC(c3ncc(-c4ccc(-c5ccc(-c6cnc([C@@H]7CCCN7C(=O)[C@@H](NC(=O)OC)C(C)C)[nH]6)cc5)cc4)[nH]3)N(C(=O)[C@@H](NC(=O)OC)C(C)C)C2)C1 (mixture of isomers) | 0.251 | 6.31 | –
COC(=O)N[C@@H](C)C(=O)N1C(c2ncc(-c3ccc(-c4ccc(-c5cnc([C@@H]6CCCN6C(=O)[C@@H](NC(=O)OC)C(C)C)[nH]5)cc4)cc3)[nH]2)CCC12CCC(F)(F)CC2 (stereo partly specified) | 0.01 | 0.631 | –
COC(=O)N[C@H](C(=O)N1CC2(CC1c1ncc(-c3ccc(-c4ccc(-c5cnc([C@@H]6CCCN6C(=O)[C@@H](NC(=O)OC)C(C)C)[nH]5)cc4)cc3)[nH]1)CN(C(C)=O)C2)C(C)C (mixture of isomers) | 0.158 | 1.26 | –
CC(=O)N1CCC[C@H]1c1ncc(-c2ccc(-c3ccc(-c4cnc([C@@H]5CCCN5C(C)=O)[nH]4)cc3)cc2)[nH]1 | 126 | 794 | –
